Source: US20220162182A1, “KINASE INHIBITOR COMPOUNDS AND COMPOSITIONS AND METHODS OF USE” (ICAHN SCHOOL OF MEDICINE AT MOUNT SINAI, priority 2018, published 2022)
Structures can show the parent of a compound that is named as a salt.

Biological target: T1, DYRK1/DYRK1A (Homo sapiens, UniProt Q13627)
T1 construct: purchased Reaction Biology Corp
Assay: DYRK1/DYRK1A IC50 assay (Reaction Biology Corp.)
Format: biochemical
Settings: DYRK1/DYRK1A assay from Reaction Biology Corp.

Structure (SMILES) | IC50
O=c1[nH]c2ccc(-c3cncc(CNc4ccc(F)cc4)c3)cc2[nH]1 [Compound 52c, 5-(5-(((4-Fluorophenyl)amino)methyl)pyridin-3-yl)-1H-benzo[d]imidazol-2(3H)-one] | 6.11 nM
COc1ccc(NCc2cncc(-c3ccc4[nH]c(=O)[nH]c4c3)c2)cc1 [Compound 52i, 5-(5-(((4-Methoxyphenyl)amino)methyl)pyridin-3-yl)-1H-benzo[d]imidazol-2(3H)-one] | 2.2 nM
Cc1ncc(NCc2ccccc2)cc1-c1ccc2[nH]c(=O)[nH]c2c1 [Compound 74a, 5-(5-(Benzylamino)-2-methylpyridin-3-yl)-1H-benzo[d]imidazol-2(3H)-one] | 2100 nM
COCCOc1ccc(-n2c(=O)[nH]c3ccc(-c4cncc(NCc5ccccc5)c4)cc32)cc1 [Compound 61k, 6-(5-(Benzylamino)pyridin-3-yl)-1-(4-(2-methoxyethoxy)phenyl)-1H-benzo[d]imidazol-2(3H)-one] | 38 nM
O=c1[nH]c2ccc(-c3ccncc3NCc3ccccc3)cc2[nH]1 [Compound 74b, 5-(3-(Benzylamino)pyridin-4-yl)-1H-benzo[d]imidazol-2(3H)-one] | 8580 nM
CC(C)(C)OC(=O)NCCOCCOc1cccc(-n2c(=O)[nH]c3ccc(-c4cncc(NCc5ccccc5)c4)cc32)c1 [Compound 61m, tert-Butyl (2-(2-(3-(6-(5-(benzylamino)pyridin-3-yl)-2-oxo-2,3-dihydro-1H-benzo[d]imidazol-1-yl)phenoxy)ethoxy)ethyl)carbamate] | 42.8 nM
O=c1[nH]c2ccc(-c3cncc(NCc4cc[nH]n4)c3)cc2[nH]1 [Compound 49e, 5-(5-(((1H-Pyrazol-3-yl)methyl)amino)pyridin-3-yl)-1H-benzo[d]imidazol-2(3H)-one] | 3.27 nM
O=c1[nH]c2ccc(-c3cncc(CNc4ccccc4Cl)c3)cc2[nH]1 [Compound 52d, 5-(5-(((2-Chlorophenyl)amino)methyl)pyridin-3-yl)-1H-benzo[d]imidazol-2(3H)-one] | 5.05 nM
O=c1[nH]c2ccc(-c3cncc(NCc4ccccc4)c3)cc2n1-c1ccccc1 [Compound 61e, 6-(5-(Benzylamino)pyridin-3-yl)-1-phenyl-1H-benzo[d]imidazol-2(3H)-one] | 3.8 nM
O=c1[nH]c2ccc(-c3cncc(NCc4ccccc4)c3)cc2n1-c1cccnc1 [Compound 61g, 6-(5-(Benzylamino)pyridin-3-yl)-1-(pyridin-3-yl)-1H-benzo[d]imidazol-2(3H)-one] | 6.47 nM
COc1cccc(NCc2cncc(-c3ccc4[nH]c(=O)[nH]c4c3)c2)c1 [Compound 52h, 5-(5-(((3-Methoxyphenyl)amino)methyl)pyridin-3-yl)-1H-benzo[d]imidazol-2(3H)-one] | 2.26 nM
CCn1c(=O)[nH]c2ccc(-c3cncc(NCc4ccccc4)c3)cc21 [Compound 61a, 6-(5-(Benzylamino)pyridin-3-yl)-1-ethyl-1H-benzo[d]imidazol-2(3H)-one] | 1.41 nM
O=c1[nH]c2ccc(-c3cncc(NCc4ccccc4)c3)cc2n1-c1ccccn1 [Compound 61f, 6-(5-(Benzylamino)pyridin-3-yl)-1-(pyridin-2-yl)-1H-benzo[d]imidazol-2(3H)-one] | 0.52 nM
NCCOc1cccc(-n2c(=O)[nH]c3ccc(-c4cncc(NCc5ccccc5)c4)cc32)c1 [Compound 61n, 1-(3-(2-Aminoethoxy)phenyl)-6-(5-(benzylamino)pyridin-3-yl)-1H-benzo[d]imidazol-2(3H)-one hydrochloride] | 7.12 nM
O=c1[nH]c2ccc(-c3cncc(NCc4ccccc4)c3)cc2n1C1CCCC1 [Compound 61d, 6-(5-(Benzylamino)pyridin-3-yl)-1-cyclopentyl-1H-benzo[d]imidazol-2(3H)-one] | 24 nM
O=c1[nH]c2ccc(-c3cncc(NCc4ccccc4)c3)cc2n1C1CC1 [Compound 61c, 6-(5-(Benzylamino)pyridin-3-yl)-1-cyclopropyl-1H-benzo[d]imidazol-2(3H)-one] | 3.25 nM
COCCOc1cccc(-n2c(=O)[nH]c3ccc(-c4cncc(NCc5ccccc5)c4)cc32)c1 [Compound 61j, 6-(5-(Benzylamino)pyridin-3-yl)-1-(3-(2-methoxyethoxy)phenyl)-1H-benzo[d]imidazol-2(3H)-one] | 3.47 nM
CC(C)n1c(=O)[nH]c2ccc(-c3cncc(NCc4ccccc4)c3)cc21 [Compound 61b, 6-(5-(Benzylamino)pyridin-3-yl)-1-isopropyl-1H-benzo[d]imidazol-2(3H)-one] | 13.8 nM
O=c1[nH]c2ccc(-c3cc(NCc4ccccc4)c[n+]([O-])c3)cc2[nH]1 [Compound 69b, 3-(Benzylamino)-5-(2-oxo-2,3-dihydro-1H-benzo[d]imidazol-5-yl)pyridine 1-oxide] | 45.2 nM
O=c1[nH]c2ccc(-c3cnccc3NCc3ccccc3)cc2[nH]1 [Compound 74c, 5-(4-(Benzylamino)pyridin-3-yl)-1H-benzo[d]imidazol-2(3H)-one] | 1690 nM
O=c1[nH]c2ccc(-c3cncc(NCc4ncco4)c3)cc2[nH]1 [Compound 49f, 5-(5-((Oxazol-2-ylmethyl)amino)pyridin-3-yl)-1H-benzo[d]imidazol-2(3H)-one] | 4.03 nM
O=c1[nH]c2ccc(-c3cncc(NCc4cccs4)c3)cc2[nH]1 [Compound 49b, 5-(5-((Thiophen-2-ylmethyl)amino)pyridin-3-yl)-1H-benzo[d]imidazol-2(3H)-one] | 0.48 nM
C[C@H](Nc1cncc(-c2ccc3[nH]c(=O)n(C)c3c2)c1)c1ccccc1 [Compound 69c] | 0.286 nM
Cn1c(=O)[nH]c2ccc(-c3cc(NCc4ccccc4)c[n+]([O-])c3)cc21 [Compound 69a, 3-(Benzylamino)-5-(3-methyl-2-oxo-2,3-dihydro-1H-benzo[d]imidazol-5-yl)pyridine 1-oxide] | 99.9 nM
COc1ccccc1NCc1cncc(-c2ccc3[nH]c(=O)[nH]c3c2)c1 [Compound 52g, 5-(5-(((2-Methoxyphenyl)amino)methyl)pyridin-3-yl)-1H-benzo[d]imidazol-2(3H)-one] | 2.72 nM
CC(C)(C)OC(=O)NCCOc1cccc(-n2c(=O)[nH]c3ccc(-c4cncc(NCc5ccccc5)c4)cc32)c1 [Compound 611, tert-Butyl (2-(3-(6-(5-(benzylamino)pyridin-3-yl)-2-oxo-2,3-dihydro-1H-benzo[d]imidazol-1-yl)phenoxy)ethyl)carbamate] | 103 nM
O=c1[nH]c2ccc(-c3cncc(NCc4ccco4)c3)cc2[nH]1 [Compound 49a, 5-(5-((Furan-2-ylmethyl)amino)pyridin-3-yl)-1H-benzo[d]imidazol-2(3H)-one] | 1.74 nM
O=c1[nH]c2ccc(-c3cncc(CNc4ccccc4F)c3)cc2[nH]1 [Compound 52a, 5-(5-(((2-Fluorophenyl)amino)methyl)pyridin-3-yl)-1H-benzo[d]imidazol-2(3H)-one] | 3.67 nM
O=c1[nH]c2ccc(-c3cncc(CNc4cccc(F)c4)c3)cc2[nH]1 [Compound 52b, 5-(5-(((3-Fluorophenyl)amino)methyl)pyridin-3-yl)-1H-benzo[d]imidazol-2(3H)-one] | 1.31 nM
O=c1[nH]c2ccc(-c3cncc(NCc4ncc[nH]4)c3)cc2[nH]1 [Compound 49c, 5-(5-(((1H-Imidazol-2-yl)methyl)amino)pyridin-3-yl)-1H-benzo[d]imidazol-2(3H)-one] | 4.91 nM
